Values of other authors as cited in patent publication US7208484B2, “Method of synthesizing 1alpha-hydroxy-2-methylene-19-nor-homopregnacalciferol” (Wisconsin Alumni Research Foundation, priority 2002, dated 2007).

What was measured:
vitamin D receptors = target: T1, vitamin D receptors (Homo sapiens, UniProt P11473); conditions: compared with 1α,25-dihydroxyvitamin D3
T1 sequence (P11473 1-427): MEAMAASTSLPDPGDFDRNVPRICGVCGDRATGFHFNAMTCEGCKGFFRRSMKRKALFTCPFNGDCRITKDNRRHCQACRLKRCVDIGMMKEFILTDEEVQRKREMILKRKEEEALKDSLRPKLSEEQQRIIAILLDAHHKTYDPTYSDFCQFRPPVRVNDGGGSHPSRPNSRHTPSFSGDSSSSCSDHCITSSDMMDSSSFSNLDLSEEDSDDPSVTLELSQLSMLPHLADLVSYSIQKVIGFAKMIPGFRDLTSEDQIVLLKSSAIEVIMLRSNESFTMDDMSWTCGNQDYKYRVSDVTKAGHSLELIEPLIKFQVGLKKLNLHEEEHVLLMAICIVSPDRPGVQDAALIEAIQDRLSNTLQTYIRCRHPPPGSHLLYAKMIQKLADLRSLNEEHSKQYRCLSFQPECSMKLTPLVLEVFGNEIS

[1] = in vivo

## C=C1C(=CC=C2CCCC3(C)C2CCC3C(C)C)CC(O)CC1O (stereo not drawn) [1α-hydroxy-20-methyl-pregnacalciferol]
Vitamin D receptors
  binding to the receptor: comparable binding to the receptor as 1α,25-dihydroxyvitamin D3
HL-60 cell
  HL-60 cell differentiation ability: some HL-60 cell differentiation ability
[1]
  calcemic activity: essentially devoid of calcemic activity
